Legend:
[1] = biological target: sGC (Homo sapiens (Human), UniProt Q02153); assay: cGMP expression test based on LNCap cells (sGC stimulatory activity); assay type: cell-based; details: ODQ present; for MEC: Minimum effective concentration required to stimulate cGMP production in LNCap cells (greater than three times the baseline value); for EC50: cGMP production in LNCap cells
Experimental: I. cGMP Expression Test Based on InCap Cells
(1) The compound was diluted to a concentration of 10 mM using DMSO.
(2) A serial dilution of the compound was performed, resulting in 10 different concentration levels of each compound. 100 nL of each diluted compound was added to a 96-well plate.
3) Preparation of LNCap Cells
(1) LNCap culture medium: RPMI1640 supplemented with 10% fetal bovine serum (FBS) and 1% double antibody
(9) Assay buffer was added, and the cell concentration was adjusted to 3×10^6/mL.
4) Preparation and Addition of ODQ Solution
(1) 10 mM ODQ stock solution was diluted at a ratio of 1:1000 and added to the cell solution.
(2) After thorough mixing, the solution was added to a microplate at 10 μL per well.
5) Preparation of cGMP Standard Curve
(1) 1 mM cGMP stock solution was diluted to 10 μM using assay buffer. 11 concentration gradients were created through 4-fold serial dilutions.
(2) The diluted cGMP was added to the microplate at 10 μL per well.
6) Addition of Assay Reagents and Plate Reading
(1) cGMP-D2 was transferred to a 384-well plate at 5 μL per well. Anti-cGMP cryptate was transferred to a […] at 5 μL per well. Centrifugation was performed at 1500 rpm for 1 minute.
(2) Incubation was carried out at room temperature for 1 hour.
(3) The plates were read using envision at 665/615 wavelengths.
(1) cGMP standard curve: A standard curve was generated using GraphPad Prism, based on the ratio of cGMP concentration to the 665/615 wavelength values.
(2) Conversion of HTRF (homogeneous time-resolved fluorescence) ratio (665/615) to cGMP concentration: In GraphPad Prism, the HTRF ratio (665/615) was copied to the ratio column of the cGMP standard curve. The analysis “Log inhibitor vs response-variable slope” was run, and the “interpolate” option was selected to convert the HTRF ratio (665/615) into cGMP concentration.
(3) Compound activation curve: A curve was generated using the “Log agonist vs response-variable slope” analysis method in GraphPad Prism, based on the converted cGMP concentration and compound concentration.

[2] = test system: hepatocytes; assay: In vitro hepatocyte metabolic stability, mouse; assay type: in vitro ADME; details: test compound 1 μM, 0.5×10^6 cells/mL
Experimental: (§1) 1. Experimental Objective: The Aim of the Study was to Assess the Stability of the Compounds in Hepatocytes of Different Species.
(§2) A variety of 96-well precipitation plates were prepared and labeled as T0, T15, T30, T60, T90, T0-MC, T90-MC, and blank matrix, respectively. Revival medium and incubation medium were taken in advance and pre-warmed in a 37° C. water bath. Hepatocytes of different species, stored in a liquid nitrogen tank, were taken and immediately immersed in a 37° C. water bath for approximately 90 seconds. Once partially thawed, cells were transferred to centrifuge tubes containing 40 mL of revival medium, and gently inverted to resuspend the cells in the revival medium. At room temperature, cells were centrifuged at 100×g for 5 minutes. The supernatant was discarded, and the hepatocytes were resuspended in an appropriate volume of incubation medium. Viability was calculated using trypan blue staining. 198 μL of hepatocyte suspension (0.51×10^6 cells/mL) was added to pre-warmed incubation plates. For the control group, 198 μL of hepatocyte-free incubation medium was added to T0-MC and […] plates. All plates were pre-incubated for 10 minutes in a 37° C. incubator. […] All samples were mixed well and analyzed using LC/MS/MS methods.

[3] = In vivo pharmacokinetic property study in male Sprague Dawley rats
Experimental: Experimental objective: The aim of this study was to determine the pharmacokinetic parameters of the compound in male Sprague Dawley rats.
Sprague Dawley rats (male, 200 to 300 g, 7 to 9 weeks old, procured from Shanghai SLAC)
For this project, four male Sprague Dawley rats were used. Two rats in one group were administered the compound intravenously at a dosage of 2 mg/kg and a concentration of 0.4 mg/mL. Two rats in another group were administered the compound orally at a dosage of 10 mg/kg and a concentration of 1 mg/mL. Plasma samples were collected 0.083 (intravenous group only), 0.25, 0.5, 1, 2, 4, 6, 8, and 24 hours after administration. The collected samples were then analyzed using LC-MS/MS and data were collected. The collected analytical data were processed using Phoenix WinNonlin 6.3 software to calculate relevant pharmacokinetic parameters.

[4] = test system: hepatocytes; assay: In vitro hepatocyte metabolic stability, human; assay type: in vitro ADME; details: test compound 1 μM, 0.5×10^6 cells/mL
Experimental: as §1, §2

[5] = test system: hepatocytes; assay: In vitro hepatocyte metabolic stability, rat; assay type: in vitro ADME; details: test compound 1 μM, 0.5×10^6 cells/mL
Experimental: as §1, §2

Chain of sGC (Q02153 whole entry): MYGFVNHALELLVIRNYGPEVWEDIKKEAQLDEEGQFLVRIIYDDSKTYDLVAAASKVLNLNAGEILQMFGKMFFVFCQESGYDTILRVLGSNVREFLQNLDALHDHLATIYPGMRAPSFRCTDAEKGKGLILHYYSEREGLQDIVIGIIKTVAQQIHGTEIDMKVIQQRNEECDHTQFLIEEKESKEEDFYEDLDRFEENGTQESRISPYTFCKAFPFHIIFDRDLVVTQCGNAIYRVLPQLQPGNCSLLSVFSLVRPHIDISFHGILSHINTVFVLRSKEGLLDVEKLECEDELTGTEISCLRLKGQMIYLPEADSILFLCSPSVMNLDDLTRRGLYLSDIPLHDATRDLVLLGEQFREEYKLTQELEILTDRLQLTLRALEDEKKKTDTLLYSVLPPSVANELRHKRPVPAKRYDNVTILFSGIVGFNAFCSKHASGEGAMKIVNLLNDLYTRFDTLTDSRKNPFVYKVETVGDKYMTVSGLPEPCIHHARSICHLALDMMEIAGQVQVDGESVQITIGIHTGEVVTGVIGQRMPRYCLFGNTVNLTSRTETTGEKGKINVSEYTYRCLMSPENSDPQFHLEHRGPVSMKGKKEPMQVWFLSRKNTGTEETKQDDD
Chain of sGC (Q02108 whole entry partner): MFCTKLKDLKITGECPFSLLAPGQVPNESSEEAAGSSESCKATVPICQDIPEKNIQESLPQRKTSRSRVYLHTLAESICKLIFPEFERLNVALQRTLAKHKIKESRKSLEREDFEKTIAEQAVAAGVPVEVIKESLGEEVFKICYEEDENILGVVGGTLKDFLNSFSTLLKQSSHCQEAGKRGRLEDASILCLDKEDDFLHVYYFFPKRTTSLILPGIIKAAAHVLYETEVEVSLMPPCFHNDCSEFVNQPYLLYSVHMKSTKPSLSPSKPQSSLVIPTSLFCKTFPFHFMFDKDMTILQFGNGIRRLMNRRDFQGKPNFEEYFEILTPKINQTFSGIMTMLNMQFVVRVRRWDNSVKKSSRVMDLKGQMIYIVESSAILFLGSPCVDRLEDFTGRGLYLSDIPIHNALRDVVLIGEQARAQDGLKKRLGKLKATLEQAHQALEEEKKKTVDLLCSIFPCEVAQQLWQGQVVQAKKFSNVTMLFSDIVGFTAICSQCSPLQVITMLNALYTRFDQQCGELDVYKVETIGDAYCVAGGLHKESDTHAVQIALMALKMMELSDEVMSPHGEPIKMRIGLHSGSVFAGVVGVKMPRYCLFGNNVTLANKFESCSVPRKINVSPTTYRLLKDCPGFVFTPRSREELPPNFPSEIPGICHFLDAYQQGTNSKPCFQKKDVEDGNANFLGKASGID

Structure (SMILES)	MEC [1] [nM]	EC50 [1] [nM]	other results
C[C@H]([C@H](C(=O)Nc1cc(C(CC(=O)O)C2CCCC2)ccc1Cl)c1ccc(Cl)cc1)C(F)(F)F (stereo partly drawn) [WX001]	4.20	6.62	
C[C@H]([C@H](C(=O)Nc1cc(C(CC(=O)O)C23CC(F)(C2)C3)ccc1F)c1ccc(Cl)cc1)C(F)(F)F (stereo partly drawn) [WX007]	0.65	3.28	
C[C@H]([C@H](C(=O)Nc1cc([C@@H](CC(=O)O)C23CC(F)(C2)C3)ccc1Cl)c1ccc(Cl)cc1)C(F)(F)F [WX005]	0.27	2.06	CLint (liver) [2]: 610.4 mL/min/kg; T1/2 [2]: 0.45 h; AUC ([3]; iv 2 mg/kg): 11.228 µM·h; Cl ([3]; iv 2 mg/kg): 5.47 mL/min/kg; T1/2 ([3]; iv 2 mg/kg): 3.83 h; Vdss ([3]; iv 2 mg/kg): 1.27 L/kg; AUC ([3]; po 10 mg/kg): 17.423 µM·h; T1/2 ([3]; po 10 mg/kg): 6.92 h; % F ([3]; po 10 mg/kg vs iv 2 mg/kg): 42.1%; CLint (liver) [4]: 49.7 mL/min/kg; T1/2 [4]: 1.29 h; CLint (liver) [5]: 154.7 mL/min/kg; T1/2 [5]: 0.698 h
C[C@H]([C@H](C(=O)Nc1cc(C(CC(=O)O)C23CC(F)(C2)C3)ccc1Cl)c1ccc(Cl)cc1)C(F)(F)F (stereo partly drawn) [WX004]	0.61	3.74	
C[C@H]([C@H](C(=O)Nc1cc([C@@H](CC(=O)O)C2CCCC2)ccc1Cl)c1ccc(Cl)cc1)C(F)(F)F [WX002]	2.20	1.76	

The next lines start with results.

MEC [1] [nM]	EC50 [1] [nM]	Structure (SMILES)	other results
1.39	1.75	Cc1ccc([C@@H](CC(=O)O)C23CC(F)(C2)C3)cc1NC(=O)[C@H](c1ccc(Cl)cc1)[C@@H](C)C(F)(F)F [WX011]	
0.42	1.65	COC12CC([C@H](CC(=O)O)c3ccc(Cl)c(NC(=O)[C@H](c4ccc(Cl)cc4)[C@@H](C)C(F)(F)F)c3)(C1)C2 [WX014]	
27.85	145	C[C@H]([C@H](C(=O)Nc1cc([C@@H](CC(=O)O)[C@H]2CCCO2)ccc1Cl)c1ccc(Cl)cc1)C(F)(F)F [WX016]	
1.76	2.16	Cc1ccc(C(CC(=O)O)C23CC(F)(C2)C3)cc1NC(=O)C(c1ccc(Cl)cc1)[C@@H](C)C(F)(F)F (stereo partly drawn) [WX010]	
1.22	3.5	COC12CC(C(CC(=O)O)c3ccc(Cl)c(NC(=O)[C@H](c4ccc(Cl)cc4)[C@@H](C)C(F)(F)F)c3)(C1)C2 (stereo partly drawn) [WX013]	
